Experimental data: US12037345B2, “Heterobicyclic compounds for inhibiting the activity of SHP2” (TAIHO PHARMACEUTICAL CO., LTD., priority 2018, dated 2024)
Structures can show the parent of a compound that is named as a salt.

Experiments:
SHP2 = SHP2 (Homo sapiens (Human), UniProt Q06124); assay: SHP2 Biochemical Assay (DiFMUP conversion, pIRS1-activated)
Method: SHP2 activity was monitored by measuring the conversion of the surrogate substrate 6,8-difluoromethylumbelliferyl phosphate (DiFMUP) to the fluorescent product, 6,8-difluoromethylumbelliferone (DiFMU).
SHP2 was pre-incubated with test compounds and the activating peptide pIRS1 (H2N-LN(pY)IDLDLV-(PEG)8-LST(pY)ASINFQK-amide) for 30 min, prior to addition of the 6,8-difluoromethylumbelliferyl phosphate (DiFMUP), (Thermo Fisher D6567). Final assay concentrations were 10 pM SHP2, […] pIRS1 peptide, 50 μM DiFMUP, 25 mM Bis-Tris propane, pH 7.0, 150 mM NaCl, 0.05% (v/v) Tween-20, 0.5 mM TCEP and 5% (v/v) DMSO. Rates of reaction were then measured over 30 min by monitoring fluorescence on a BMG Pherastar reader at excitation 360 nm/emission 450 nm. IC50 values were calculated in singlicate from the normalized dose-response plots using four parameter logistic curve fit. The Experiment for each compound was carried out in one time or multiple times, and the IC50 values were shown as a single value (for a compound measured in a single experiment) or an average value (for a compound measured in multiple experiments).

[1] = system: pERK (phospho-p44/42 ERK) in HCC827 cells; assay: Cellular pERK Inhibition Assay, Method A (In-Cell Western); type: cell-based; settings: Homo sapiens, Table 19, head prints unit as "-M", read-out: pERK (IC50) Method A
Method: Cellular pERK Inhibition Assay
pERK levels were determined using the In-Cell Western assay. HCC827 cells (ATCC, Manassas, USA) were seeded into 384-well plates at a density of 1×10^4 cells/well in RPMI1640 medium supplemented with 10% FBS and incubated 24h. Compounds were diluted first in DMSO and then into serum-free medium, before being added to cells in quadruplicate to give a final concentration of 0.2% DMSO. Plates were incubated at 37° C. for the indicated time in a humidified atmosphere of 5% CO2 in air.
Following compound treatment, cells were fixed with formalin neutral buffer solution for 20 minutes at room temperature. Plates were washed three times with 0.1% Triton-X in PBS and cells were blocked for 1 hour with Odyssey blocking buffer (LI-COR, #927-40000). After shaking out blocking buffer, cells were incubated with phospho-p44/42 ERK antibody (Cell Signalling Technology, #4370, 1:200) diluted in Odyssey blocking buffer at 4° C. overnight. Plates were washed again and cells were incubated for 1 hour with Goat anti-Rabbit […] (LI-COR, #926-32211, 1:800) diluted in Odyssey blocking buffer. After washing and removing wash solution completely using a centrifuge machine, cells were scanned on the Odyssey (LI-COR), following the manufacturer's instructions. The average signal from blank wells (no cells added) was subtracted from the signals from each sample well. Levels of pERK were then expressed as percent of control, using DMSO treated samples as control. The relative IC50 values were calculated in quadruplicate from the normalized dose-response plots using four parameter logistic curve fit. The Experiment for each compound was carried out in one time or multiple times, and the IC50 values were shown as a single value (for a compound measured in a single experiment) or an average value (for a compound measured in multiple experiments).

[2] = Table 19, head prints unit as "-M"

| IC50 (SHP2; [2]) [nM] | SMILES | IC50 (SHP2; Table 20) [nM] | also measured |
| --- | --- | --- | --- |
| 4 | CCn1cc2c(Cl)c(-c3c[nH]c4nc(N5C[C@H]6CC[C@@H]5[C@@H]6N)n(C)c(=O)c34)ccc2n1 (stereo in doubt) [Example 155, rel-2-((1R,4R,7R)-7-amino-2-azabicyclo[2.2.1]heptan-2-yl)-5-(4-chloro-2-ethyl-2H-indazol-5-yl)-3-methyl-3,7-dihydro-4H-pyrrolo[2,3-d]pyrimidin-4-one] | – | – |
| 760 | Cn1cc2c(Cl)c(-c3c[nH]c4nc(N5CCN[C@H](CCO)C5)n(C)c(=O)c34)ccc2n1 [Example 20, (R)-5-(4-chloro-2-methyl-2H-indazol-5-yl)-2-(3-(2-hydroxyethyl)piperazin-1-yl)-3-methyl-3,7-dihydro-4H-pyrrolo[2,3-d]pyrimidin-4-one] | – | – |
| 78 | Cn1cc2c(Cl)c(-c3c[nH]c4nc(N5CCC6(CCN6)CC5)n(C)c(=O)c34)ccc2n1 [Example 42, 5-(4-chloro-2-methyl-2H-indazol-5-yl)-3-methyl-2-(1,7-diazaspiro[3.5]nonan-7-yl)-3,7-dihydro-4H-pyrrolo[2,3-d]pyrimidin-4-one] | – | – |
| 290 | Cn1cc2c(Cl)c(-c3n[nH]c4nc(N5[C@@H]6CC[C@H]5[C@H](F)[C@@H](N)C6)n(C)c(=O)c34)ccc2n1 [Example 149, 6-[(1S,2R,3S,5R)-3-Amino-2-fluoro-8-azabicyclo[3.2.1]octan-8-yl]-3-(4-chloro-2-methyl-2H-indazol-5-yl)-5-methyl-1H,4H,5H-pyrazolo[3,4-d]pyrimidin-4-one] | – | – |

More lines, now with the values behind:

| SMILES | IC50 (SHP2; [2]) [nM] | IC50 (SHP2; Table 20) [nM] | also measured |
| --- | --- | --- | --- |
| CCn1cc2c(Cl)c(-c3c[nH]c4nc(N5CCC6(CNC6)C5)n(C)c(=O)c34)ccc2n1 (racemic) [Example 196, rac-5-(4-chloro-2-ethyl-2H-indazol-5-yl)-2-{2,6-diazaspiro[3.4]octan-6-yl}-3-methyl-3H,4H,7H-pyrrolo[2,3-d]pyrimidin-4-one] | – | 32 | – |
| CCn1cc2c(Cl)c(-c3c[nH]c4nc(N5CC6CNCC5C6)n(C)c(=O)c34)ccc2n1 (single isomer, unassigned) [Example 193, 5-(4-chloro-2-ethyl-2H-indazol-5-yl)-2-{3,6-diazabicyclo[3.2.1]octan-6-yl}-3-methyl-3H,4H,7H-pyrrolo[2,3-d]pyrimidin-4-one hydrochloride] | – | 260 | – |
| CCn1cc2c(Cl)c(-c3c[nH]c4nc(N5C[C@@H]6CC[C@H]5[C@H]6N)n(C)c(=O)c34)ccc2n1 (stereo in doubt) [Example 133, rac-2-((1S,4S,7S)-7-amino-2-azabicyclo[2.2.1]heptan-2-yl)-5-(4-chloro-2-ethyl-2H-indazol-5-yl)-3-methyl-3,7-dihydro-4H-pyrrolo[2,3-d]pyrimidin-4-one] | – | – | IC50 [1]: 46 nM |
| C[C@@H]1CN(c2nc3[nH]cc(-c4ccc5nn(C)cc5c4Cl)c3c(=O)n2C)CCN1 [Example 18, (R)-5-(4-chloro-2-methyl-2H-indazol-5-yl)-3-methyl-2-(3-methylpiperazin-1-yl)-3,7-dihydro-4H-pyrrolo[2,3-d]pyrimidin-4-one] | 230 | – | – |
| Cn1cc2c(Cl)c(-c3c[nH]c4nc(N5CCN[C@H](CO)C5)n(C)c(=O)c34)ccc2n1 [Example 19, (S)-5-(4-chloro-2-methyl-2H-indazol-5-yl)-2-(3-(hydroxymethyl)piperazin-1-yl)-3-methyl-3,7-dihydro-4H-pyrrolo[2,3-d]pyrimidin-4-one] | 350 | – | – |
| CCn1cc2c(Cl)c(-c3c[nH]c4nc(N5[C@H]6CC[C@@H]5[C@H](N)C6)n(C)c(=O)c34)ccc2n1 [Example 92, 2-((1R,2R,4S)-2-amino-7-azabicyclo[2.2.1]heptan-7-yl)-5-(4-chloro-2-ethyl-2H-indazol-5-yl)-3-methyl-3,7-dihydro-4H-pyrrolo[2,3-d]pyrimidin-4-one] | – | – | IC50 [1]: 32 nM |
| Cn1nc2ccc(-c3c[nH]c4nc(N5[C@H]6CC[C@@H]5[C@H](N)C6)n(C)c(=O)c34)c(Cl)c2c1Cl [Example 93, 2-((1R,2R,4S)-2-amino-7-azabicyclo[2.2.1]heptan-7-yl)-5-(3,4-dichloro-2-methyl-2H-indazol-5-yl)-3-methyl-3,7-dihydro-4H-pyrrolo[2,3-d]pyrimidin-4-one] | – | – | IC50 [1]: 21 nM |
| Cn1nc2ccc(-c3c[nH]c4nc(N5[C@H]6CC[C@@H]5[C@H](N)C6)n(C)c(=O)c34)c(F)c2c1Cl [Example 96, 2-((1R,2R,4S)-2-amino-7-azabicyclo[2.2.1]heptan-7-yl)-5-(3-chloro-4-fluoro-2-methyl-2H-indazol-5-yl)-3-methyl-3,7-dihydro-4H-pyrrolo[2,3-d]pyrimidin-4-one] | – | – | IC50 [1]: 30 nM |
| Cn1c(N2[C@H]3CC[C@@H]2[C@H](N)C3)nc2[nH]cc(-c3ccc4ncsc4c3Cl)c2c1=O [Example 101, 2-((1R,2R,4S)-2-amino-7-azabicyclo[2.2.1]heptan-7-yl)-5-(7-chlorobenzo[d]thiazol-6-yl)-3-methyl-3,7-dihydro-4H-pyrrolo[2,3-d]pyrimidin-4-one] | – | – | IC50 [1]: 46 nM |
| Cn1cc2c(Cl)c(-c3n[nH]c4nc(N5CC6COCC(C5)N6)n(C)c(=O)c34)ccc2n1 [Example 145, 3-(4-chloro-2-methyl-2H-indazol-5-yl)-5-methyl-6-{3-oxa-7,9-diazabicyclo[3.3.1]nonan-7-yl}-1H,4H,5H-pyrazolo[3,4-d]pyrimidin-4-one] | 150 | – | – |
| Cn1nc2ccc(-c3c[nH]c4nc(N5[C@H]6CC[C@@H]5[C@@H](N)C6)n(C)c(=O)c34)c(Cl)c2c1Cl [Example 166, 2-((1R,2S,4S)-2-amino-7-azabicyclo[2.2.1]heptan-7-yl)-5-(3,4-dichloro-2-methyl-2H-indazol-5-yl)-3-methyl-3,7-dihydro-4H-pyrrolo[2,3-d]pyrimidin-4-one] | – | 53 | – |
| Cn1nc2ccc(-c3c[nH]c4nc(N5[C@H]6CC[C@@H]5[C@H](N)C6)n(C)c(=O)c34)cc2c1Cl [Example 167, 2-((1R,2R,4S)-2-amino-7-azabicyclo[2.2.1]heptan-7-yl)-5-(3-chloro-2-methyl-2H-indazol-5-yl)-3-methyl-3,7-dihydro-4H-pyrrolo[2,3-d]pyrimidin-4-one] | – | 13 | – |
| Cn1nc2c(Cl)cc(-c3c[nH]c4nc(N5[C@H]6CC[C@@H]5[C@@H](N)C6)n(C)c(=O)c34)c(Cl)c2c1Cl [Example 168, 2-((1R,2S,4S)-2-amino-7-azabicyclo[2.2.1]heptan-7-yl)-3-methyl-5-(3,4,7-trichloro-2-methyl-2H-indazol-5-yl)-3,7-dihydro-4H-pyrrolo[2,3-d]pyrimidin-4-one] | – | 7 | – |
| CCn1cc2ccc(-c3c[nH]c4nc(N5CCC6(CC5)COC[C@H]6N)n(C)c(=O)c34)cc2n1 [Example 183, 2-[(4S)-4-amino-2-oxa-8-azaspiro[4.5]decan-8-yl]-5-(2-ethyl-2H-indazol-6-yl)-3-methyl-3H,4H,7H-pyrrolo[2,3-d]pyrimidin-4-one hydrochloride] | – | 140 | – |
| Cn1cc2c(Cl)c(-c3c[nH]c4nc(N5[C@@H]6CC[C@H]5C[C@](N)(C(F)F)C6)n(C)c(=O)c34)ccc2n1 [Example 185, 2-[(endo)-3-amino-3-(difluoromethyl)-8-azabicyclo[3.2.1]octan-8-yl]-5-(4-chloro-2-methyl-2H-indazol-5-yl)-3-methyl-3H,4H,7H-pyrrolo[2,3-d]pyrimidin-4-one hydrochloride] | – | 180 | – |
| CCn1cc2cc(-c3c[nH]c4nc(N5CCC6(CC5)COC[C@H]6N)n(C)c(=O)c34)cc(F)c2n1 [Example 186, 2-[(4S)-4-amino-2-oxa-8-azaspiro[4.5]decan-8-yl]-5-(2-ethyl-7-fluoro-2H-indazol-5-yl)-3-methyl-3H,4H,7H-pyrrolo[2,3-d]pyrimidin-4-one hydrochloride] | – | 36 | – |
